This is an account of results in US12649733B2, “3,6-diamino-pyridazin-3-yl derivatives, pharmaceutical compositions containing them and their uses as pro-apoptotic agents” (LES LABORATOIRES SERVIER, priority 2019, dated 2026).

What is called IC50 is the concentration at which inhibition is half-maximal. A higher IC50 goes with lower potency. The term Ki denotes a measure of affinity in units of concentration, obtained from inhibition or displacement.

Structures are written as SMILES.

The test system of experiment [1] is H146 cells. Kind of experiment: H146 cell viability, MTT assay. In kind it is cell-based. The following applies: Homo sapiens, NCI-H146, 48 h, 48 h exposure. The method in brief: (§1)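 Viability read by MTT reduction (OD 540 nm after overnight SDS/HCl lysis) after 48 h compound treatment of cells in RPMI 1640/10% FBS. Triplicates at nine concentrations, 3.16-fold apart; four-parameter curve fitting yields IC50.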
On the technique in general: Tetrazolium dyes change colour on reduction, which living cells bring about.

The target in experiment [2] is T1, Bcl-xL protein (Homo sapiens, UniProt Q07817, N197C).
T1 construct: (2-197)[N197C]; His-His (two His8 stretches joined by a Gly/Ala/Ser/Thr linker)
Kind of experiment: Fluorescence quenching assay (PUMA peptide displacement). The following applies: 1 nM protein, 400 nM peptide, 2 hours at 23° C.; KI determined from IC50. In kind it is binding. The text has this:
Fluorescence quenching assay measures the change in fluorescence intensity of C-terminally Cy5-labeled BCL-xL protein, His-His-(EK)-hs ? (2-197)[N197C] (UniProtKB® primary accession number Q07817-1) having an amino acid sequence (SEQ ID:03): [[…] […] […] […] […]] which is linked in C-terminal region to the amino acid X which corresponds to a cysteine labeled on the sulfur with Sulfo-Cyanine5 from Lumiprobe GmbH catalogue number 13380, upon binding of a C-terminally labeled peptide derived from PUMA (UniProtKB® primary accession number Q9BXH1) having an aminoacid sequence (SEQ ID:04): [[…]] which is linked in C-terminal region to the amino acid X′ where X′ is cysteine labeled on the sulfur with TQ5WS from AAT Bioquest catalogue number 2079.
The addition of a compound which binds competitively to the same site as the peptide will result in an increase in the fluorescence intensity of the protein due to displacement of the fluorescence quencher.
An 11-point serial dilution of each compound was prepared in DMSO the final buffer conditions were 10 mM 4-(2-hydroxyethyl)-1-piperazineethanesulfonic acid [HEPES], 150 mM NaCl, 0.05% Tween 20, pH 7.4 and 5% DMSO. The final protein concentration in the assay was 1 nM with the peptide present at 400 nM. The experiments were incubated for 2 hours at 23° C. before fluorescence intensity was measured on a Biotek SynergyNeo plate reader (Excitation 620 nm, emission 680 nm). […] The KI values were determined from the IC50 values according to Cer et al, Nucleic Acids Res, 2009, Jul. 1: 37(WebServer issue): W441-W445.

The test system of experiment [3] is MOLT-4 cells. Put plainly: MOLT-4 cell viability, MTT assay. In kind it is cell-based. The following applies: Homo sapiens, MOLT-4, 48 h, 48 h exposure. The method in brief:
as §1

T1 sequence (Q07817 2-197 N197C): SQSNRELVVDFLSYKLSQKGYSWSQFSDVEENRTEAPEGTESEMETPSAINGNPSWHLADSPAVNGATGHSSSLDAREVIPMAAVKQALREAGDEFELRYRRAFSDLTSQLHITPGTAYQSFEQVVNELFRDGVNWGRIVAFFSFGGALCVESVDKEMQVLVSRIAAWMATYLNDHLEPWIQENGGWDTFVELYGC

For `CNCC#Cc1cc(F)c(OCCCc2sc(N(C)c3cc(C)c(Nc4nc5ccccc5s4)nn3)nc2C(=O)O)cn1` [Example 197, 2-({6-[(1,3-Benzothiazol-2-yl)amino]-5-methylpyridazin-3-yl}(methyl)amino)-5-[3-({4-fluoro-6-[3-(methylamino)prop-1-yn-1-yl]pyridin-3-yl}oxy)propyl]-1,3-thiazole-4-carboxylic acid], half-maximal inhibition in experiment [1] (IC50) required 43.9 nM. Moreover, in experiment [2], the Ki was 0.0013 nM.

In turn, `Cc1cc(N(CCCS(=O)(=O)O)c2nc(C(=O)O)c(CCCOc3ccc(C#CCN(C)C)cc3F)s2)nnc1Nc1nc2ccccc2s1` [Example 240, 2-({6-[(1,3-Benzothiazol-2-yl)amino]-5-methylpyridazin-3-yl}(3-sulfopropyl)amino)-5-(3-{4-[3-(dimethylamino)prop-1-yn-1-yl]-2-fluorophenoxy}propyl)-1,3-thiazole-4-carboxylic acid] returned an IC50 in experiment [3] of 1320 nM. For the same compound, the Ki in experiment [2] turned out to be 0.0073 nM.

Regarding `Cc1cc(N(CCCCS(=O)(=O)O)c2nc(C(=O)O)c(CCCOc3ccc(C#CCN(C)C)cc3F)s2)nnc1Nc1nc2ccccc2s1` [Example 241, 2-({6-[(1,3-Benzothiazol-2-yl)amino]-5-methylpyridazin-3-yl}(4-sulfobutyl)amino)-5-(3-{4-[3-(dimethylamino)prop-1-yn-1-yl]-2-fluorophenoxy}propyl)-1,3-thiazole-4-carboxylic acid], in experiment [3], the IC50 was found to be 1190 nM. The Ki in experiment [2] worked out at 0.0094 nM.

In turn, `Cc1cc(N(CCCCP(=O)(O)O)c2nc(C(=O)O)c(CCCOc3ccc(C#CCN(C)C)cc3F)s2)nnc1Nc1nc2ccccc2s1` [Example 242, 2-({6-[(1,3-Benzothiazol-2-yl)amino]-5-methylpyridazin-3-yl}(4-phosphonobutyl)amino)-5-(3-{4-[3-(dimethylamino)prop-1-yn-1-yl]-2-fluorophenoxy}propyl)-1,3-thiazole-4-carboxylic acid] had an IC50 in experiment [3] of 525 nM. Besides, the Ki in experiment [2] was 0.0078 nM.

The compound `Cc1cc(N(CCCCC(=O)O)c2nc(C(=O)O)c(CCCOc3ccc(C#CCN(C)C)cc3F)s2)nnc1Nc1nc2ccccc2s1` [Example 243, 2-({6-[(1,3-Benzothiazol-2-yl)amino]-5-methylpyridazin-3-yl}(4-carboxybutyl)amino)-5-(3-{4-[3-(dimethylamino)prop-1-yn-1-yl]-2-fluorophenoxy}propyl)-1,3-thiazole-4-carboxylic acid] displayed an IC50 in experiment [3] of 112 nM. Moreover, the Ki in experiment [2] was found to be 0.005 nM.

`Cc1cc(N(C)c2ccc(-c3cnn(CC45CC6(C)CC(C)(C4)CC(OCCNCC[C@H](O)CO)(C6)C5)c3C)c(C(=O)O)n2)nnc1Nc1nc2ccccc2s1` [Example 247, 6-[{6-[(1,3-benzothiazol-2-yl)amino]-5-methylpyridazin-3-yl}(methyl)amino]-3-(1-{[3-(2-{[(3S)-3,4-dihydroxybutyl]amino}ethoxy)-5,7-dimethyladamantan-1-yl]methyl}-5-methyl-1H-pyrazol-4-yl)pyridine-2-carboxylic acid] displayed an IC50 in experiment [3] of 2.81 nM. In experiment [2], the Ki is 0.0012 nM.

Consider `Cc1cc(N(C)c2ccc(-c3cnn(CC45CC6(C)CC(C)(C4)CC(OCCN(C)C)(C6)C5)c3C)c(C(=O)O)n2)nnc1Nc1nc2ccccc2s1` [Example 250, 6-[{6-[(1,3-benzothiazol-2-yl)amino]-5-methylpyridazin-3-yl}(methyl)amino]-3-[1-{{3-[2-(dimethylamino)ethoxy]-5,7-dimethyladamantan-1-yl}methyl)-5-methyl-1H-pyrazol-4-yl]pyridine-2-carboxylic acid], for which the IC50 in experiment [3] was determined as 0.246 nM. Moreover, the Ki in experiment [2] worked out at 0.0022 nM.

In turn, `C#CCCCN(c1cc(C)c(Nc2nc3ccccc3s2)nn1)c1nc(C(=O)O)c(CCCOc2ccc(C#CCNC)cc2F)s1` [Example 253, 2-[{6-[(1,3-benzothiazol-2-yl)amino]-5-methylpyridazin-3-yl}(pent-4-yn-1-yl)amino]-5-(3-{2-fluoro-4-[3-(methylamino)prop-1-yn-1-yl]phenoxy}propyl)-1,3-thiazole-4-carboxylic acid] came in with an IC50 in experiment [3] of 31.7 nM. Also, the Ki in experiment [2] was found to be 0.07 nM.

`CNCC#Cc1ccc(OCCCc2sc(N(CCCCCN=[N+]=[N-])c3cc(C)c(Nc4nc5ccccc5s4)nn3)nc2C(=O)O)c(F)c1` [Example 267, 2-[5-azidopentyl-[6-[(1,3-benzothiazol-2-yl)amino]-5-methyl-pyridazin-3-yl]amino]-5-[3-[2-fluoro-4-[3-(methylamino)prop-1-ynyl]phenoxy]propyl]-1,3-thiazole-4-carboxylic acid] registered an IC50 in experiment [3] of 43.8 nM. In experiment [2], the inhibitory constant (Ki) was 0.016 nM.

In experiment [3], `Cc1cc(N(C)c2ccc(-c3cnn(CC45CC6(C)CC(C)(C4)CC(OCCNCCCO)(C6)C5)c3C)c(C(=O)O)n2)nnc1Nc1nc2ccccc2s1` [Example 268, 6-[[6-(1,3-benzothiazol-2-ylamino)-5-methyl-pyridazin-3-yl]-methyl-amino]-3-[1-[[3-[2-(3-hydroxypropylamino)ethoxy]-5,7-dimethyl-1-adamantyl]methyl]-5-methyl-pyrazol-4-yl]pyridine-2-carboxylic acid] registered an IC50 of 0.255 nM. Moreover, in experiment [2], the Ki was determined as 0.0023 nM.

Compound `COCCCNCCOC12CC3(C)CC(C)(CC(Cn4ncc(-c5ccc(N(C)c6cc(C)c(Nc7nc8ccccc8s7)nn6)nc5C(=O)O)c4C)(C3)C1)C2` [Example 269, 6-[[6-(1,3-benzothiazol-2-ylamino)-5-methyl-pyridazin-3-yl]-methyl-amino]-3-[1-[[3-[2-(3-methoxypropylamino)ethoxy]-5,7-dimethyl-1-adamantyl]methyl]-5-methyl-pyrazol-4-yl]pyridine-2-carboxylic acid] had an IC50 in experiment [3] of 0.182 nM. Besides, the inhibition constant (Ki) in experiment [2] is 0.0027 nM.

Turning to `Cc1cc(N(C)c2ccc(-c3cnn(CC45CC6(C)CC(C)(C4)CC(OCCN4CCOCC4)(C6)C5)c3C)c(C(=O)O)n2)nnc1Nc1nc2ccccc2s1` [Example 270, 6-[[6-(1,3-benzothiazol-2-ylamino)-5-methyl-pyridazin-3-yl]-methyl-amino]-3-[1-[[3,5-dimethyl-7-(2-morpholinoethoxy)-1-adamantyl]methyl]-5-methyl-pyrazol-4-yl]pyridine-2-carboxylic acid], the 50% inhibitory concentration (IC50) in experiment [3] was found to be 0.199 nM. In addition, the Ki in experiment [2] is 0.003 nM.

`Cc1cc(N(C)c2ccc(-c3cnn(CC45CC6(C)CC(C)(C4)CC(OCCNCCC(=O)O)(C6)C5)c3C)c(C(=O)O)n2)nnc1Nc1nc2ccccc2s1` [Example 271, 6-[[6-(1,3-benzothiazol-2-ylamino)-5-methyl-pyridazin-3-yl]-methyl-amino]-3-[1-[[3-[2-(2-carboxyethylamino)ethoxy]-5,7-dimethyl-1-adamantyl]methyl]-5-methyl-pyrazol-4-yl]pyridine-2-carboxylic acid]: half-maximal inhibition in experiment [3] (IC50) required 30.8 nM. Also, the Ki in experiment [2] was found to be 0.0033 nM.

Take `Cc1cc(N(C)c2ccc(-c3cnn(CC45CC6(C)CC(C)(C4)CC(OCCNCc4cccc(O)c4)(C6)C5)c3C)c(C(=O)O)n2)nnc1Nc1nc2ccccc2s1` [Example 272, 6-[[6-(1,3-benzothiazol-2-ylamino)-5-methyl-pyridazin-3-yl]-methyl-amino]-3-[1-[[3-[2-[(3-hydroxyphenyl)methylamino]ethoxy]-5,7-dimethyl-1-adamantyl]methyl]-5-methyl-pyrazol-4-yl]pyridine-2-carboxylic acid]: in experiment [3], the IC50 came to 0.284 nM. Further, in experiment [2], the Ki came to 0.0023 nM.
